Read-outs that look alike come from different tables or passages of the source. Each block holds one compound with its values, some of them ahead of it.
Assays:
T-cells = experiment: Toxicity of detergents to T-cells; type: cell-based
Experimental: A number of detergents were studied for their ability to solubilize human HLA-DR2 and MHC-peptide complexes. In addition the complexes prepared in the detergents were assayed for activity. A summary of structural and physical characteristics of various detergents used for solubilization of HLA-DR2 is presented in FIG. 1.

mouse [1] = experiment: GLP Toxicology: Subacute - full histo; type: in vivo; conditions: i.v., QD14
Experimental: (§1) Safety and toxicity studies were carried out for the intravenous administration of dodecyl-β-D-maltoside in various animal models.

[2] = Aggregation assay by size-exclusion HPLC and SDS-PAGE; type: physicochemical; conditions: DM concentration below 0.05%, FIG. 4, 5
Experimental: Three non-ionic detergents (DM, OG, and Tween-80) were tested. The experiments were carried out as generally described in U.S. Pat. Nos. 5,130,297, 5,194,425, 5,260,422 and 5,284,935, all of which are incorporated herein by reference. Briefly, HLA-DR2 was purified from EBV-transformed lymphoblastoid cells [GM03107] obtained from the National Institute of General Medical Sciences human genetic mutant cell repository (Corinell Institute of Medical Research, NJ.). A triton X-100 cell lysate was prepared and applied to a L243 coupled sepharose-4B column and the bound DR2 was eluted in phosphate buffer containing 0.05% n-dodecyl β-D-maltoside (DM) detergent at pH 11.3. Fractions were immediately neutralized with 20% monobasic phosphate and the DR2 pool was collected through a DEAE ion exchange column in 20 mM phosphate buffer containing 0.5 M NaCl and 0.05% DM, pH 6.0. The flow through purified protein solution from the DEAE column was neutralized with 10% tribasic sodium phosphate, filtered through a 180 kD membrane and concentrated to 1 mg/ml. The final DR2 preparation was characterized by 13.5% SDS polyacrylamide gel electrophoresis followed by silver staining.
To prepare the DR2-peptide complex, purified DR2 was dialyzed against 100 mM citrate buffer pH 6.0 containing 0.05% DM for 24 hours at 4° C. prior to the addition of MBP(83-102)Y^83 peptide. […]

mouse [3] = experiment: GLP Toxicology: Acute Range-finding; type: in vivo; conditions: i.v., 400 ug/kg, bolus
Experimental: as §1

various animal models = experiment: Safety and toxicity studies, intravenous administration in various animal models; type: in vivo; conditions: i.v. administration at various tested doses, summary of Table 1
Experimental: as §1

HLA-DR2 = experiment: Occupancy of MHC molecules with peptide (loading); type: binding, human; conditions: DR2 and MBP(83-102)Y^83 complexes prepared in the named detergent
Experimental: To prepare the DR2-peptide complex, purified DR2 was dialyzed against 100 mM citrate buffer pH 6.0 containing 0.05% DM for 24 hours at 4° C. prior to the addition of MBP(83-102)Y^83 peptide. The reaction mixture was incubated at 37° C. for 96 hours and free peptide was removed by Sephacryl S200 gel filtration.
As noted in the figure, the occupancy of the MHC molecules (i.e., proportion of the molecules complexed with peptide) was 90% in DM, 40% in octylglucoside and 76% in Tween-80).

rat = experiment: Safety Pharmacology: Diuretic Assay; type: in vivo; conditions: i.v., bolus
Experimental: as §1

mouse [4] = experiment: Safety Pharmacology: Neuropharm profile; type: in vivo; conditions: i.v., bolus
Experimental: as §1

dog = experiment: Safety Pharmacology: Cardiovasc Effects; type: in vivo; conditions: i.v.
Experimental: as §1

mouse [5] = experiment: Safety Pharmacology: Barbit Sleep Potent; type: in vivo; conditions: i.v., bolus
Experimental: as §1

Compound: C[C@H](CCC(=O)NCCC[N+](C)(C)CCCS(=O)(=O)[O-])[C@H]1CC[C@H]2[C@@H]3[C@H](O)C[C@@H]4C[C@H](O)CC[C@]4(C)[C@H]3C[C@H](O)[C@]12C [CHAPS]
toxicity to T-cells (T-cells; detergents for solubilization of HLA-DR2): toxic to T-cells

Compound: CCCCCCCCCCCCO[C@@H]1O[C@H](CO)[C@@H](O[C@H]2O[C@H](CO)[C@@H](O)[C@H](O)[C@H]2O)[C@H](O)[C@H]1O [DM, dodecyl β-D maltoside]
Results, Subacute - full histo (mouse [1]; 4 ug/kg): No Eff @ necr/clin-path
Results, Subacute - full histo (mouse [1]; 40 ug/kg): No Effects
Results, Subacute - full histo (mouse [1]; 400 ug/kg): D14 Spleen wt slightly
aggregation level of DR2 [2]: increased aggregation level of DR2
Results, Acute Range-finding (mouse [3]): poss kindey cortical
toxic effects (various animal models): no toxic effects
occupancy of the MHC molecules (proportion of the molecules complexed with peptide) (HLA-DR2): 90%
Results, Diuretic Assay (rat; 10 ug/kg): No Effects
Results, Diuretic Assay (rat; 100 ug/kg): No Effects
Results, Neuropharm profile (mouse [4]; 10 ug/kg): No Effects
Results, Neuropharm profile (mouse [4]; 100 ug/kg): No Effects
Results, Cardiovasc Effects (dog; 10 ug/kg, bolus): No Effects
Results, Cardiovasc Effects (dog; up if NOEL to 100 ug/kg): No Effects
Results, Barbit Sleep Potent (mouse [5]; 10 ug/kg): No Effects
Results, Barbit Sleep Potent (mouse [5]; 100 ug/kg): No Effects

occupancy of the MHC molecules (proportion of the molecules complexed with peptide) (HLA-DR2): 76%
Compound: CCCCCCCC/C=C\CCCCCCCC(=O)OCCOCC(OCCO)C1OCC(OCCO)C1OCCO (stereo not shown) [Tween-80]

occupancy of the MHC molecules (proportion of the molecules complexed with peptide) (HLA-DR2): 40%
Compound: CCCCCCCCO[C@@H]1O[C@H](CO)[C@@H](O)[C@H](O)[C@H]1O [octylglucoside, octyl glucoside]

Compound: Pluronic F-127
toxicity to T-cells (T-cells): toxic to T-cells

— patent US20030118594A1, “STABLE FORMULATIONS OF MHC-PEPTIDE COMPLEXES” (priority 1995, published 2003)
